Measured values from patent US9247759B2, “Identification of human T2R receptors that respond to bitter compounds that elicit the bitter taste in compositions, and the use thereof in assays to identify compounds that inhibit (block) bitter taste in compositions and use thereof” (SENOMYX, INC., priority 2007, dated 2016).
pIC50: −log10 of the molar value. Where two headings read alike, the source gives them in different places.

Biological target: hT2R8 (Homo sapiens (Human), UniProt Q9NYW2)
Test: hT2R8 antagonist high-throughput FLIPR assay, stable cell line with G16g44, agonist andrographolide
Type: cell-based
Conditions: for IC50: unit uM, read-out: IC50 on hT2R08 bitter receptor
Description: After a ligand is identified for a particular hT2R, a HEK293 cell line stably expressing both the hT2R and G16gust44 are generated, facilitating future screening assays to identify other ligands that activate the particular hT2R or which modulate (block or enhance) the activation of this hT2R by another bitter ligand such as a bitter compound contained in coffee. This avoids the need for transient transfection.
(§1) To identify antagonists, cell lines stably expressing hT2R8 and hT2R14, respectively, together with the promiscuous chimeric G16g44 protein were generated as described in previous patent applications. A high-throughput assay was established using the stable cell lines and FLIPR (Fluorescent Imaging Plate Reader). An agonist of hT2R8 or hT2R14 was used to activate the receptors up to 70-80% of their respective maximal activity. For hT2R8, the agonist used was andrographolide (200 λM); for hT2R14, it was aristolochic acid (3 μM). To identify antagonists, compounds with diverse chemical structures were added together with the agonist.
as §1, with “hT2R8” for “hT2R8 and hT2R14, respectively,”, “hT2R8” for “hT2R8 or hT2R14”, “(200” for “(200 λM); for hT2R14, it was aristolochic acid (3”

[1] = table after Example 12-37, read-out: hT2R8 IC50
[2] = read-out: IC50 on hT2R8 bitter receptor
[3] = table after Example 10-97, read-out: hT2R8 IC50

Sequence of hT2R8 (Q9NYW2 whole entry): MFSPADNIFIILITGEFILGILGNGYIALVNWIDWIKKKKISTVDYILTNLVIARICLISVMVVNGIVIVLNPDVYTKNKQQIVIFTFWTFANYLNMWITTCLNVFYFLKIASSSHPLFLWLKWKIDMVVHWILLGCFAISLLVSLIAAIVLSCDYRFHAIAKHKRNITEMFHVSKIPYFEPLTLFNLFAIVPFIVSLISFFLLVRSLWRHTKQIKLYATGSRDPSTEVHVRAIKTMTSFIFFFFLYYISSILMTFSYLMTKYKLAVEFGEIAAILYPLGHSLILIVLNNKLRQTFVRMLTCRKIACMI

Row | SMILES | pIC50 [2] | pIC50 [3] | also measured
1 | COc1cc(C(=O)Nc2cnn(Cc3c(C)noc3C)c2)ccc1C [Example 4-74, N-(1-((3,5-dimethylisoxazol-4-yl)methyl)-1H-pyrazol-4-yl)-3-methoxy-4-methylbenzamide] | – | – | pIC50 (Table A, read-out: hT2R8 IC50): 5.66
2 | Cc1noc(C)c1Cn1cc(N2C(=O)N(Cc3cc(F)ccc3F)C(C)(C)C2=O)cn1 [Example 12-59, 1-(2,5-difluorobenzyl)-3-(1-((3,5-dimethylisoxazol-4-yl)methyl)-1H-pyrazol-4-yl)-5,5-dimethylimidazolidine-2,4-dione] | – | – | pIC50 [1]: 6.62
3 | Cc1noc(C)c1Cn1cc(NC(=O)CCc2ccccc2)cn1 [Example 4-55, N-(1-((3,5-dimethylisoxazol-4-yl)methyl)-1H-pyrazol-4-yl)-3-phenylpropanamide] | – | – | pIC50 (Table A, read-out: hT2R8 IC50): 6.31
4 | Cc1noc(C)c1Cn1cc(N2C(=O)CN(Cc3ccccc3[N+](=O)[O-])C2=O)cn1 [Example 10-23, 3-(1-((3,5-dimethylisoxazol-4-yl)methyl)-1H-pyrazol-4-yl)-1-(2-nitrobenzyl)imidazolidine-2,4-dione] | – | 7.09 | IC50: 0.07 µM
5 | Cc1noc(C)c1Cn1cc(-n2c(=O)[nH]c(=O)n(Cc3ccccc3)c2=O)cn1 [Example 9-9, 1-benzyl-3-(1-((3,5-dimethylisoxazol-4-yl)methyl)-1H-pyrazol-4-yl)-1,3,5-triazinane-2,4,6-trione] | 5.94 | 5.81 | –
6 | Cc1noc(C)c1Cn1cc(N2C(=O)CN(Cc3ccc(O)cc3)C2=O)cn1 [Example 10-12, 3-(1-((3,5-dimethylisoxazol-4-yl)methyl)-1H-pyrazol-4-yl)-1-(4-hydroxybenzyl)imidazolidine-2,4-dione] | – | 7.37 | IC50: 0.06 µM
7 | Cc1noc(C)c1Cn1cc(N2C(=O)CNC2=O)cn1 [Example 10-1, 3-(1-((3,5-dimethylisoxazol-4-yl)methyl)-1H-pyrazol-4-yl)imidazolidine-2,4-dione] | 5.77 | 5.77 | –
8 | Cc1noc(C)c1Cn1cc(NS(=O)(=O)c2ccccc2F)cn1 [Example 4-100, N-(1-((3,5-dimethylisoxazol-4-yl)methyl)-1H-pyrazol-4-yl)-2-fluorobenzenesulfonamide] | – | – | pIC50 (Table A, read-out: hT2R8 IC50): 5.07
9 | COc1ccc(OC)c(NC(=S)Nc2cnn(Cc3c(C)noc3C)c2)c1 [Example 4-113, 1-(2,5-dimethoxyphenyl)-3-(1-((3,5-dimethylisoxazol-4-yl)methyl)-1H-pyrazol-4-yl)thiourea] | – | – | pIC50 (Table A, read-out: hT2R8 IC50): 5.28
10 | Cc1noc(C)c1Cn1cc(N2C(=O)[C@@H](C)N(Cc3ccccc3)C2=O)cn1 [Example 12-37, (R)-1-benzyl-3-(1-((3,5-dimethylisoxazol-4-yl)methyl)-1H-pyrazol-4-yl)-5-methylimidazolidine-2,4-dione] | 8.00 | – | –
11 | Cc1noc(C)c1Cn1cc(N2C(=O)CN(Cc3cccc(C=O)c3)C2=O)cn1 [Example 10-24, 3-((3-(1-((3,5-dimethylisoxazol-4-yl)methyl)-1H-pyrazol-4-yl)-2,4-dioxoimidazolidin-1-yl)methyl)benzaldehyde] | – | 6.70 | IC50: 0.2 µM
12 | Cc1noc(C)c1Cn1cc(NC(=O)c2cccc(C#N)c2)cn1 [Example 4-10, 3-cyano-N-(1-((3,5-dimethylisoxazol-4-yl)methyl)-1H-pyrazol-4-yl)benzamide] | 6.70 | – | –
13 | Cc1noc(C)c1Cn1cc(-n2c(=O)n(C)n(CCOc3ccccc3)c2=O)cn1 [Example 10-67, 4-(1-((3,5-dimethylisoxazol-4-yl)methyl)-1H-pyrazol-4-yl)-1-methyl-2-(2-phenoxyethyl)-1,2,4-triazolidine-3,5-dione] | 7.51 | – | –
14 | COc1cccc(CCN2C(=O)N(c3cnn(Cc4c(C)noc4C)c3)C(=O)C2(C)C)c1 [Example 12-60, 3-(1-((3,5-dimethylisoxazol-4-yl)methyl)-1H-pyrazol-4-yl)-1-(3-methoxyphenethyl)-5,5-dimethylimidazolidine-2,4-dione] | – | – | pIC50 [1]: 6.60
15 | COc1ccc(CN2CC(=O)N(c3cnn(Cc4c(C)noc4C)c3)C2=O)cc1OC [Example 10-35, 1-(3,4-dimethoxybenzyl)-3-(1-((3,5-dimethylisoxazol-4-yl)methyl)-1H-pyrazol-4-yl)imidazolidine-2,4-dione] | – | 7.29 | IC50: 0.06 µM
16 | Cc1noc(C)c1Cn1cc(NC(=S)Nc2cccc(C#N)c2)cn1 [Example 4-109, 1-(3-cyanophenyl)-3-(1-((3,5-dimethylisoxazol-4-yl)methyl)-1H-pyrazol-4-yl)thiourea] | – | – | pIC50 (Table A, read-out: hT2R8 IC50): 6.11
17 | COc1cccc(C(=O)Nc2nnn(Cc3c(C)noc3C)n2)c1 [Example 4-114, N-(2-((3,5-dimethylisoxazol-4-yl)methyl)-2H-tetrazol-5-yl)-3-methoxybenzamide] | – | – | pIC50 (Table A, read-out: hT2R8 IC50): 5.73
18 | COc1cccc(CN2CC(=O)N(c3cnn(Cc4c(C)noc4C)c3)C2=O)n1 [Example 10-75, 3-(1-((3,5-dimethylisoxazol-4-yl)methyl)-1H-pyrazol-4-yl)-1-((6-methoxypyridin-2-yl)methyl)imidazolidine-2,4-dione] | 6.64 | 6.64 | –
19 | Cc1noc(C)c1Cn1cc(N2C(=O)N(C(C)c3ccccc3)C(C)(C)C2=O)cn1 (stereo not shown) [Example 12-24, 3-(1-((3,5-dimethylisoxazol-4-yl)methyl)-1H-pyrazol-4-yl)-5,5-dimethyl-1-(1-phenylethyl)imidazolidine-2,4-dione] | 6.82 | – | –
20 | Cc1noc(C)c1Cn1cc(N2CCN(Cc3ccccc3)C2=O)cn1 [Example 10-88, 1-benzyl-3-(1-((3,5-dimethylisoxazol-4-yl)methyl)-1H-pyrazol-4-yl)imidazolidin-2-One] | 6.15 | 5.90 | –
21 | Cc1noc(C)c1Cn1cc(C(=O)NCc2cccs2)sc1=O [Example 4-116, 3-((3,5-dimethylisoxazol-4-yl)methyl)-2-oxo-N-(thiophen-2-ylmethyl)-2,3-dihydrothiazole-5-carboxamide] | – | – | pIC50 (Table A, read-out: hT2R8 IC50): 5.64
22 | Cc1noc(C)c1Cn1cc(NC(=O)C(c2ccccc2)c2ccccc2)cn1 [Example 4-44, N-(1-((3,5-dimethylisoxazol-4-yl)methyl)-1H-pyrazol-4-yl)-2,2-diphenylacetamide] | – | – | pIC50 (Table A, read-out: hT2R8 IC50): 5.28
23 | Cc1noc(C)c1Cn1cc(N2C(=O)CN(Cc3ccccc3)C2=O)cn1 [Example 10-53, 1-benzyl-3-(1-((3,5-dimethylisoxazol-4-yl)methyl)-1H-pyrazol-4-yl)imidazolidine-2,4-dione] | 7.05 | 6.59 | –
24 | Cc1noc(C)c1Cn1cc(N2C(=O)N[C@H](Cc3ccccc3)C2=O)cn1 [Example 10-4, (R)-5-benzyl-3-(1-((3,5-dimethylisoxazol-4-yl)methyl)-1H-pyrazol-4-yl)imidazolidine-2,4-dione] | 6.96 | 6.95 | –
25 | Cc1noc(C)c1Cn1cc(N2C(=O)N(CCCc3ccccc3)C(C)(C)C2=O)cn1 [Example 12-78, 3-(1-((3,5-dimethylisoxazol-4-yl)methyl)-1H-pyrazol-4-yl)-5,5-dimethyl-1-(3-phenylpropyl)imidazolidine-2,4-dione] | – | – | pIC50 [1]: 6.24
26 | Cc1ccc(C(=O)Nc2cnn(Cc3c(C)noc3C)c2)o1 [Example 4-54, N-(1-((3,5-dimethylisoxazol-4-yl)methyl)-1H-pyrazol-4-yl)-5-methylfuran-2-carboxamide] | – | – | pIC50 (Table A, read-out: hT2R8 IC50): 5.50
27 | Cc1noc(C)c1Cn1cc(NC(=O)c2ccc[nH]2)cn1 [Example 4-13, N-(1-((3,5-dimethylisoxazol-4-yl)methyl)-1H-pyrazol-4-yl)-1H-pyrrole-2-carboxamide] | 6.24 | – | –

The next lines start with results.

Row | pIC50 [2] | pIC50 [3] | SMILES | also measured
28 | 7.40 | – | Cc1noc(C)c1Cn1cc(N2C(=O)[C@H](CO)N(Cc3cccc(O)c3)C2=O)cn1 [Example 12-9, (S)-3-(1-((3,5-dimethylisoxazol-4-yl)methyl)-1H-pyrazol-4-yl)-1-(3-hydroxybenzyl)-5-(hydroxymethyl)imidazolidine-2,4-dione] | –
29 | 6.55 | – | Cc1noc(C)c1Cn1cc(NC(=O)CC(C)c2ccccc2)cn1 (stereo not shown) [Example 4-12, N-(1-((3,5-dimethylisoxazol-4-yl)methyl)-1H-pyrazol-4-yl)-3-phenylbutanamide] | –
30 | 6.05 | 6.05 | Cc1noc(C)c1Cn1cc(N2C(=O)CN(Cc3cccc(CNC(=O)OC(C)(C)C)c3)C2=O)cn1 [Example 10-96, tert-butyl 3-((3-(1-((3,5-dimethylisoxazol-4-yl)methyl)-1H-pyrazol-4-yl)-2,4-dioxoimidazolidin-1-yl)methyl)benzylcarbamate] | –
31 | 6.10 | 5.74 | Cc1noc(C)c1Cn1cc(-n2c(=O)n(Cc3ccccc3)n(Cc3ccccc3)c2=O)cn1 [Example 10-70, 1,2-dibenzyl-4-(1-((3,5-dimethylisoxazol-4-yl)methyl)-1H-pyrazol-4-yl)-1,2,4-triazolidine-3,5-dione] | –
32 | – | 6.88 | Cc1ccccc1CN1CC(=O)N(c2cnn(Cc3c(C)noc3C)c2)C1=O [Example 10-20, 3-(1-((3,5-dimethylisoxazol-4-yl)methyl)-1H-pyrazol-4-yl)-1-(2-methylbenzyl)imidazolidine-2,4-dione] | IC50: 0.1 µM
33 | 6.89 | – | Cc1noc(C)c1Cn1cc(N2C(=O)N(Cc3cccc(O)c3)C(C)(CO)C2=O)cn1 (stereo not shown) [Example 12-10, 3-(1-((3,5-dimethylisoxazol-4-yl)methyl)-1H-pyrazol-4-yl)-1-(3-hydroxybenzyl)-5-(hydroxymethyl)-5-methylimidazolidine-2,4-dione] | –
